Tests used:
heparinized bovine blood = experiment: Clot formation on dip-coated PET fabric disks in heparinized bovine blood; conditions: PVDF-HFP/drug 90/10 dip-coated 15 mm PET fabric disks, ACT about 190 seconds, 37° C., various time points, images FIG. 5
Description: A solution of PVDF-HFP and DOAC was prepared in 80/20 acetone/DMSO (wt/wt). The PVDF-HFP to drug ratio was 90/10 (wt/wt) and the solution solids was 0.7%. The DOAC drugs evaluated were apixaban (Eliquis®), rivaroxaban (Xarelto®) and edoxaban (Savaysa®) 15 mm diameter polyethylene terephthalate (PET) fabric disks were dip coated into the polymer/drug solution at a dip speed of 5 mm/sec. The coated disks were dried for 30 min at 125° C. in a convection oven. The drug coated disks and PVDF-HFP only control disks were placed in cups containing heparinized bovine blood adjusted to an active clotting time (ACT) of about 190 seconds using protamine. The cups were placed on an orbital shaker incubator at 37° C. and disks were removed at various time points and imaged. The disks were then dried and weighed to determine clot weight. […] The clot weights provided in FIG. 6 verify the minimal amount of thrombus formed on the DOAC treated fabric.

bovine blood = experiment: Thrombogenicity of spray-coated Watchman device in bovine blood; conditions: bovine blood ACT=210, 15 minutes
Description: A drug/polymer solution of PVDF-HFP and DOAC was prepared in 80/20 acetone/DMSO (wt/wt). The PVDF-HFP to drug ratio was 60/40 (wt/wt) and the solution solids was 2%. The DOAC drug evaluated was rivaroxaban (Xarelto). A 24 mm diameter Watchman device was spray-coated with the polymer/drug solution at a flow rate of 10 ml/hr to apply a basecoat. The device was dried for 30 min at 125° C. in a convection oven and then spray-coated with a topcoat solution (2% PVDF-HFP in 100% acetone), at a flow rate of 10 ml/hr. The total basecoat weight was 38.8 mg and the topcoat weight was 18.7 mg. The spray-coated device was then placed in PBS/Tween solution at 37° C. for 11 days to simulate in vivo drug elution. The device was then rinsed with DI water and dried. A PVDF-HFP-only coated control device was also subjected to the same incubation and rinsing protocol. The DOAC-eluting device and the control device were placed in the same container of bovine blood (ACT=210) on an orbital shaker incubator at 37° C. for 15 minutes to assess the thrombogenicity of the two devices.
A solution of PVDF-HFP and DOAC was prepared in 40/60 acetone/DMF (wt/wt). The PVDF-HFP to drug ratio was 70/30 (wt/wt) and the solution solids was 4%. The DOAC drug evaluated was apixaban. […]

COc1ccc(-n2nc(C(N)=O)c3c2C(=O)N(c2ccc(N4CCCCC4=O)cc2)CC3)cc1 [apixaban]
thrombus (clots) compared to the PVDF-HFP coated control (heparinized bovine blood): significantly less thrombus
thrombus formation on partially coated (masked) device (bovine blood; PVDF-HFP/drug 70/30 basecoat plus topcoat, proximal face only, 24 mm Watchman, after 7 days in PBS/Tween at 37° C., FIG. 10B): inhibited thrombus formation only on the proximal face of the device

O=C(NC[C@H]1CN(c2ccc(N3CCOCC3=O)cc2)C(=O)O1)c1ccc(Cl)s1 [rivaroxaban]
thrombus (clots) compared to the PVDF-HFP coated control (heparinized bovine blood): significantly less thrombus
thrombus formation on device versus PVDF-HFP-only coated control device (bovine blood; PVDF-HFP/drug 60/40 basecoat plus topcoat on 24 mm Watchman, after 11 days in PBS/Tween at 37° C., FIGS. 9A-9D): inhibited thrombus formation on the proximal face of the device to a greater degree than did the control device

— patent US20240115270A1, “DIRECT ORAL ANTICOAGULANT-ELUTING MEDICAL DEVICE” (BOSTON SCIENTIFIC SCIMED, INC., priority 2021, published 2024)
